Assay results reported in US20110065675A1, “AZO DYE RELATED SMALL MOLECULE MODULATORS OF PROTEIN-PROTEIN INTERACTIONS” (University of Miami, priority 2008, published 2011).
Like-named read-outs stand apart in the source and are kept apart here.

Key:
[1] = target: T1, human CD40/CD154 (Homo sapiens, UniProt P29965); assay: Human CD40/CD154 binding inhibition assay (cell-free, plate-based)
T1 construct: CD154 (soluble human, FLAG-tagged, recombinant from Alexis Biochemicals; MW=18 kDa); purchased Alexis Biochemicals
T1 sequence (P29965 113-261 limits assumed): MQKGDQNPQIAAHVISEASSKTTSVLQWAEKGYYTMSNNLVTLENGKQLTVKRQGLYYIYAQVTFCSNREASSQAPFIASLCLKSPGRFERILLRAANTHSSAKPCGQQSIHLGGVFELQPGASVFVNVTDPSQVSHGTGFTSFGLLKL
Method: A 96-well plate-based cell-free in vitro binding inhibition assay, which is a modification of an assay described in U.S. Pat. No. 7,173,046, incorporated by reference in its entirety, has been developed and used for activity screening. Briefly, CD40 is coated at a preselected concentration, and binding of (FLAG-tagged) CD154 is measured by reacting with secondary antibody and using TMB liquid substrate system as a substrate for horseradish peroxidase for reading at 450 nm. The detailed procedure is as follows: Microtiter plates (Nunc F MaxiSorp) were coated with […] of CD40: Fc (human:Fc human, recombinant from Alexis Biochemicals; MW=54 kDa) diluted in PBS pH 7.2 at a preselected concentration of 0.3125 μg/mL. Plates were covered with plate sealer and stored overnight at 4° C. The liquid was removed from the plates and blotted dry. Plates were blocked by washing once with approx. 300 μL/well of Blocking Solution (PBS pH 7.2, 0.05% Tween-20, 1% BSA) and incubated with the same solution for 1 hour at room temperature (RT) or at 4° C. overnight. Coated plates were washed three times with Washing Solution (PBS pH 7.4, 0.05% Tween-20) and blotted dry. A preselected dilution of CD154 (soluble human, FLAG-tagged, recombinant from Alexis Biochemicals; MW=18 kDa) of 0.0087500875 μg/mL range was prepared in 100 mM HEPES, 0.005% BSA pH 7.2. Binding was carried out by adding 100 μL of this CD154 dilution/well and incubating at RT in the presence of test compounds (or blank as negative control). After incubation, the plates were washed with Washing Solution and blotted dry. Bound CD154 was detected with 200 μL/well of secondary antibody mAb ANTI-FLAG M2—Peroxidase Conjugate (anti-FLAG M2-peroxidase HRP conjugate; Sigma-Aldrich) diluted 1:40,000 in Washing Solution. After incubation, the plates were washed and blotted dry. 200 μL/well of the HR-Peroxidase substrate TMB (3,3′,5,5′-tetramethylbenzidine; Sigma-Aldrich) were added, and the plates were incubated for approximately 30 minutes in the dark. The reaction was stopped with 0.5 M H2SO4 and read at 450 nm. All conditions were tested in at least three independent experiments in duplicate or triplicate per plates. Data were normalized and fitted with standard log inhibitor vs. response models using GraphPad Prism 5 to establish median inhibitory ICso values.
A representative result using the monoclonal anti-human CD154 antibody (R&D Systems, monoclonal anti-human CD40 ligand/TNFSF5 antibody, MAB617; MW≈150 kDa used) as positive control is shown in FIG. 1.
Binding inhibition assays with this system provided consistent and well-reproducible results, as FIG. 1 (bottom), focusing on the concentration range of their activities, illustrates. […] The effect of DMSO, which was used as the diluting solvent for the non-water-soluble compounds and is a standard solvent in HTS assays, on the integrity of the assay has been examined. DMSO concentrations above 10% interfere with the binding assay, but concentrations below 3% have no effect. […] Because 5 or 10 mM stock solutions were used, all IC50 values below 250 μM can be considered as unaffected by DMSO.

[2] = target: P2 (ATP/UTP purine receptor); settings: read-out: IC50, P2 antagonist; cited from earlier work
[3] = cell-free binding, read-out: Human CD40/CD154 IC50

SMILES	IC50 [1, 3] [µM]	IC50 ([1]; cell-free binding, read-out: Human CD40/CD154 IC50 (ug/mL) (converted)) [µM]	IC50 [2] [µM]	Activity in the human CD40/CD154 binding assay [1]	Human CD40/CD154 IC50 ([1]; cell-free binding) [µg/mL]	Human CD40/CD154 log IC50 ([1]; log of IC50, cell-free binding)
Cc1ccc(C(=O)Nc2ccc(S(=O)(=O)O)c3cc(S(=O)(=O)O)cc(S(=O)(=O)O)c23)cc1NC(=O)c1cccc(NC(=O)Nc2cccc(C(=O)Nc3cc(C(=O)Nc4ccc(S(=O)(=O)O)c5cc(S(=O)(=O)O)cc(S(=O)(=O)O)c45)ccc3C)c2)c1 [Suramin, reference compound]	14.6	14	5 to 10			
O=C([O-])C1=NN(c2ccc(S(=O)(=O)[O-])cc2)C(=O)C1N=Nc1ccc(S(=O)(=O)[O-])cc1.[Na+].[Na+].[Na+] (stereo not shown) [Tartrazine (FD&C yellow 5), Tartrazine, reference compound]	> 2000			inactive	>2000	>−3.0
